Reference: patent publication US4054659A, “5,7 Dihydroxy-1-(trimethoxybenzyl)-1,2,3,H-tetrahydroisoquinolines and use thereof” (Tanabe Seiyaku Co., Ltd., priority 1974, dated 1977)

Tests used:
heart rate = test: Increase of heart rate after duodenal administration in anesthetized cats; assay type: in vivo; details: 10 μg/kg, duodenum
Procedure: (§1) Cats were anesthetized with sodium pentobarbital (40 mg/.kg, i.p.). Under artificial respiration (13 - 15 ml of air/kg/stroke, 30 strokes/minute) thereof, the cats were immobilized by intraveous injection of gallamine triethyodide (8 mg/kg). Serotonin.creatinin sulfate (=bronchoconstrictor) was injected intravenously to the cats at the dose of 20 μg/kg, and the intratracheal pressure was measured by means of a pressure transducer. Then, each one of test compounds was administered to the duodenum of the cats at the dose of 10 μg/kg, and the intratracheal pressure and the heart rate were measured with the passage of time. The bronchodilating activity was estimated by the preventive effects (%) of each test compound against bronchoconstriction.

[1] = system: serotonin-creatinin sulfate-induced bronchoconstriction; test: Preventive effects against serotonin-creatinin sulfate-induced bronchoconstriction (bronchodilating activity) in anesthetized cats; assay type: in vivo; details: for Preventive effects against bronchoconstriction: cats, 10 μg/kg, duodenum
Excerpt: The 5,7-dihydroxy-tetrahydroisoquinoline derivative (I) of the present invention or a pharmaceutically acceptable acid addition salt thereof has potent bronchodilating activity and is useful as a bronchodilator. Moreover, as compared with 6,7-dihydroxy-1-(3,4,5-trimethoxybenzyl)-1,2,3,4-tetrahydroisoquinoline, the 5,7-dihydroxy-tetrahydroisoquinoline derivative (I) of the present invention is more useful because of the longer duration of its point bronchodilating activity and/or lesser side effects (e.g., lesser increase of the heart rate). […] However, the bronchodilating activity of the former lasts for more than 3.5 hours at its maximum level, whereas the latter decreases to about 1/3 the maximum level after 3.5 hours.
as §1

[2] = 50% lethal dose (LD50) by intravenous injection to mice; details: mouse, in vivo
Excerpt: The toxicity of the 5,7-dihydroxytetrahydroisoquinoline derivative (I) of the present invention is considerably low.

[3] = 15 minutes after administration
[4] = 30 minutes after administration
[5] = 45 minutes after administration
[6] = 60 minutes after administration
[7] = 75 minutes after administration
[8] = 90 minutes after administration
[9] = 120 minutes after administration
[10] = 150 minutes after administration
[11] = 180 minutes after administration
[12] = 210 minutes after administration

Row | Structure (SMILES) | Preventive effects against bronchoconstriction ([1]; 5 minutes after administration) | Preventive effects against bronchoconstriction [1, 3] | Preventive effects against bronchoconstriction [1, 4] | Preventive effects against bronchoconstriction [1, 5] | Preventive effects against bronchoconstriction [1, 6] | Preventive effects against bronchoconstriction [1, 7] | Preventive effects against bronchoconstriction [1, 8] | Preventive effects against bronchoconstriction [1, 9] | Preventive effects against bronchoconstriction [1, 10] | Preventive effects against bronchoconstriction [1, 11] | Preventive effects against bronchoconstriction [1, 12] | also measured
1 | COc1cc(CC2NCCc3c(O)cc(O)cc32)cc(OC)c1OC.Cl (stereo not shown) [A, 5,7-dihydroxy-1-(3,4,5-trimethoxybenzyl)-1,2,3,4-tetrahydroisoquinoline hydrochloride] | 8.5 ± 3.2% | 47.9 ± 8.5% | 63.5 ± 9.9% | 69.7 ± 8.7% | 71.1 ± 7.1% | 70.7 ± 6.8% | 72.5 ± 6.1% | 71.0 ± 5.6% | 70.2 ± 6.4% | 69.1 ± 5.7% | 64.6 ± 7.4% | Increase of heart rate (Number of heart beats increased/minute) (heart rate; 5 minutes after administration): 1.3 ± 0.3 heart beats increased/minute; Increase of heart rate (Number of heart beats increased/minute) (heart rate; [3]): 10.6 ± 3.4 heart beats increased/minute; Increase of heart rate (Number of heart beats increased/minute) (heart rate; [4]): 22.2 ± 6.5 heart beats increased/minute; Increase of heart rate (Number of heart beats increased/minute) (heart rate; [5]): 21.3 ± 5.2 heart beats increased/minute; Increase of heart rate (Number of heart beats increased/minute) (heart rate; [6]): 20.0 ± 4.4 heart beats increased/minute; Increase of heart rate (Number of heart beats increased/minute) (heart rate; [7]): 18.7 ± 3.8 heart beats increased/minute; Increase of heart rate (Number of heart beats increased/minute) (heart rate; [8]): 17.8 ± 3.0 heart beats increased/minute; Increase of heart rate (Number of heart beats increased/minute) (heart rate; [9]): 17.2 ± 2.3 heart beats increased/minute; Increase of heart rate (Number of heart beats increased/minute) (heart rate; [10]): 15.2 ± 2.1 heart beats increased/minute; Increase of heart rate (Number of heart beats increased/minute) (heart rate; [11]): 13.7 ± 1.4 heart beats increased/minute; Increase of heart rate (Number of heart beats increased/minute) (heart rate; [12]): 12.0 ± 1.4 heart beats increased/minute; Duration of bronchodilating activity at its maximum level ([1]; after duodenal administration): more than 3.5 hours; Maximum preventive effects compared with 6,7-dihydroxy-1-(3,4,5-trimethoxybenzyl)-1,2,3,4-tetrahydroisoquinoline (hydrochloride) ([1]; duodenal administration): almost the same maximum preventive effects; LD50 [2]: ~51 mg/kg
2 | COc1cc(CC2NCCc3cc(O)c(O)cc32)cc(OC)c1OC.Cl (stereo not shown) [B, 6,7-dihydroxy-1-(3,4,5-trimethoxybenzyl)-1,2,3,4-tetrahydroisoquinolin hydrochloride, reference compound] | 21.1 ± 8.6% | 71.2 ± 7.6% | 77.6 ± 5.2% | 73.9 ± 2.6% | 67.2 ± 3.4% | 62.3 ± 5.1% | 54.7 ± 6.0% | 45.5 ± 7.5% | 38.0 ± 8.7% | 31.6 ± 9.5% | 26.0 ± 7.4% | Bronchodilating activity remaining after 3.5 hours, as fraction of the maximum level ([1]; after 3.5 hours, duodenal administration): about 1/3
